{"source": "patent US7022311B1", "about": "“Powdery inhalational preparations and process for producing the same” (Kaken Pharmaceutical Co., Ltd., priority 1999, dated 2006)", "key": {"[1]": {"test": "In vitro lung delivery fraction test with multi-stage cascade impactor (Andersen sampler, Jethaler)", "type": "physicochemical", "settings": "28.3 L/min; for Residual and Distributed Fractions of Active Ingredient: Capsule / Residual and Distributed Fractions of Active Ingredient: Inhaler device / Residual and Distributed Fractions of Active Ingredient: Stage 0 / Residual and Distributed Fractions of Active Ingredient: Stage 1 / Residual and Distributed Fractions of Active Ingredient: Stages 2–7 / Residual and Distributed Fractions of Active Ingredient: Throat / Capsule, residual active ingredient / Inhaler device, residual active ingredient / Stage 0, distribution of active ingredient / Stage 1, distribution of active ingredient / Stages 2–7, lung delivery fraction / Throat, distribution of active ingredient: S-36496 10%", "experimental": "Capsulated preparations (The Japanese Pharmacopeia No. 2 HPMC capsules: manufactured by Shionogi Qualicaps Co., Ltd.) which were filled with about 40 mg each of three dry powder inhalations were prepared and mounted on an inhaler device (Jethaler; Unisia Jecs Corp.) The Jethaler was then attached to the mouthpiece of a cascade impactor (Andersen sampler Model AN-200) and inspired at a flow rate of 28.3 L/min., thereby dispersing the micronized medication in the capsule and measuring the residual active ingredient in the capsule and in the inhaler device as well as the distribution of the active ingredient at each stage with liquid chromatography. It was confirmed that in the in vitro test with cascade impactor, the lung delivery fraction at stages 2–7 corresponding to the respiring fraction differed substantially depending on the different carrier particles.\n(§1) Capsulated preparations (The Japanese Pharmacopeia No. 2HPMC capsules: manufactured by Shionogi Qualicaps Co., Ltd.), which were filled with about 40 mg each of three dry powder inhalations, were prepared and mounted on an inhaler device (Jethaler®; Unisia Jecs Corp.). The Jethaler® brand device was then attached to the mouthpiece of a cascade impactor (Andersen sampler; Model AN-200) and inspired at a flow rate of 28.3 L/min., thereby dispersing the dry powder inhalation in the capsule and measuring the residual active ingredient in the capsule and in the inhaler device as well as the distribution of the active ingredient at each stage with liquid chromatography.\n(§2) A capsulated preparation (The Japanese Pharmacopeia No. 2HPMC capsules: manufactured by Shionogi Qualicaps Co., Ltd.) which was filled with about 40 mg of the prepared dry powder inhalations was prepared and mounted on an inhaler device (Jethaler; Unisia Jecs Corp.) The Jethaler was then attached to the mouthpiece of a cascade impactor (Andersen sampler; Model AN-200) and inspired at a flow rate of 28.3 L/min., thereby dispersing the dry powder inhalation in the capsule and measuring the residual active ingredient in the capsule and in the inhaler device as well as the distribution of the active ingredient at each stage with liquid chromatography.\nas §1, with “A capsulated preparation (The” for “Capsulated preparations (The”, “which was” for “which were”, “mg” for “mg each”, “chromatography. […]” for “chromatography.”\nas §2, with “2 HPMC” for “2HPMC”, “Ltd.)” for “Ltd.) which was”, “inhalation” for “inhalations”"}, "[2]": {"test": "Dispersibility of active ingredient from carrier particles, laser diffraction particle size analyzer", "type": "physicochemical", "settings": "Example 17: S-36496 10%, micronized lactose 1%, carrier trehalose 89%, particles of 10 μm or less"}, "[3]": {"settings": "Example 10: S-36496 3.2%, carrier lactose 95.8%, micronized lactose 1.0%"}, "[4]": {"settings": "Example 17: S-36496 10%, micronized lactose 1%, carrier trehalose 89%, Vertical Granulator 5 min"}, "[5]": {"settings": "micronized lactose 1%, carrier trehalose 89% of particle size 48.6 μm"}, "[6]": {"settings": "micronized lactose 1%, carrier trehalose 89% of particle size 81.0 μm"}, "[7]": {"settings": "micronized lactose 1%, carrier trehalose 89% of particle size 97.9 μm"}, "[8]": {"settings": "micronized lactose 1%, erythritol carrier 89% of mean particle diameter 53.8 μm"}, "[9]": {"settings": "micronized lactose 1%, erythritol carrier 89% of mean particle diameter 81.6 μm"}, "[10]": {"settings": "micronized lactose 1%, erythritol carrier 89% of mean particle diameter 155.9 μm"}}, "data": [{"smiles": "CC(C)c1csc(COc2cccc(CN(CCCCNS(=O)(=O)c3ccc(Cl)cc3)S(=O)(=O)c3ccccc3C(=O)O)c2)n1", "note": "[Example S-36496, 2-{N-[4-(4-chlorobenzenesulfonylamino)butyl]-N-{3-[(4-isopropyl-2-thiazoyl)methoxy]benzyl}}sulfamoylbenzenolic acid]", "values": [{"measurement": "Residual and Distributed Fractions of Active Ingredient (%): Capsule", "setting": "[1]; [3]", "result": 8.2, "unit": "%"}, {"measurement": "Residual and Distributed Fractions of Active Ingredient (%): Inhaler device", "setting": "[1]; [3]", "result": 19.3, "unit": "%"}, {"measurement": "Residual and Distributed Fractions of Active Ingredient (%): Stage 0", "setting": "[1]; [3]", "result": 19.5, "unit": "%"}, {"measurement": "Residual and Distributed Fractions of Active Ingredient (%): Stage 1", "setting": "[1]; [3]", "result": 9.1, "unit": "%"}, {"measurement": "Residual and Distributed Fractions of Active Ingredient (%): Stages 2–7", "setting": "[1]; [3]", "result": 18.2, "unit": "%"}, {"measurement": "Residual and Distributed Fractions of Active Ingredient (%): Throat", "setting": "[1]; [3]", "result": 25.7, "unit": "%"}, {"measurement": "Residual and Distributed Fractions of Active Ingredient (%): Capsule", "setting": "[1]; [4]", "result": 7.3, "unit": "%"}, {"measurement": "Residual and Distributed Fractions of Active Ingredient (%): Inhaler device", "setting": "[1]; [4]", "result": 19.4, "unit": "%"}, {"measurement": "Residual and Distributed Fractions of Active Ingredient (%): Stage 0", "setting": "[1]; [4]", "result": 22.3, "unit": "%"}, {"measurement": "Residual and Distributed Fractions of Active Ingredient (%): Stage 1", "setting": "[1]; [4]", "result": 5.8, "unit": "%"}, {"measurement": "Residual and Distributed Fractions of Active Ingredient (%): Stages 2–7", "setting": "[1]; [4]", "result": 30.2, "unit": "%"}, {"measurement": "Residual and Distributed Fractions of Active Ingredient (%): Throat", "setting": "[1]; [4]", "result": 15.0, "unit": "%"}, {"measurement": "Residual and Distributed Fractions of Active Ingredient: Capsule", "setting": "[1]; [5]", "result": 9.0, "unit": "%"}, {"measurement": "Residual and Distributed Fractions of Active Ingredient: Inhaler device", "setting": "[1]; [5]", "result": 24.2, "unit": "%"}, {"measurement": "Residual and Distributed Fractions of Active Ingredient: Stage 0", "setting": "[1]; [5]", "result": 24.7, "unit": "%"}, {"measurement": "Residual and Distributed Fractions of Active Ingredient: Stage 1", "setting": "[1]; [5]", "result": 2.9, "unit": "%"}, {"measurement": "Residual and Distributed Fractions of Active Ingredient: Stages 2–7", "setting": "[1]; [5]", "result": 6.4, "unit": "%"}, {"measurement": "Residual and Distributed Fractions of Active Ingredient: Throat", "setting": "[1]; [5]", "result": 32.8, "unit": "%"}, {"measurement": "Residual and Distributed Fractions of Active Ingredient: Capsule", "setting": "[1]; [6]", "result": 4.9, "unit": "%"}, {"measurement": "Residual and Distributed Fractions of Active Ingredient: Inhaler device", "setting": "[1]; [6]", "result": 19.1, "unit": "%"}, {"measurement": "Residual and Distributed Fractions of Active Ingredient: Stage 0", "setting": "[1]; [6]", "result": 18.4, "unit": "%"}, {"measurement": "Residual and Distributed Fractions of Active Ingredient: Stage 1", "setting": "[1]; [6]", "result": 2.0, "unit": "%"}, {"measurement": "Residual and Distributed Fractions of Active Ingredient: Stages 2–7", "setting": "[1]; [6]", "result": 31.4, "unit": "%"}, {"measurement": "Residual and Distributed Fractions of Active Ingredient: Throat", "setting": "[1]; [6]", "result": 24.2, "unit": "%"}, {"measurement": "Residual and Distributed Fractions of Active Ingredient: Capsule", "setting": "[1]; [7]", "result": 5.8, "unit": "%"}, {"measurement": "Residual and Distributed Fractions of Active Ingredient: Inhaler device", "setting": "[1]; [7]", "result": 25.1, "unit": "%"}, {"measurement": "Residual and Distributed Fractions of Active Ingredient: Stage 0", "setting": "[1]; [7]", "result": 18.2, "unit": "%"}, {"measurement": "Residual and Distributed Fractions of Active Ingredient: Stage 1", "setting": "[1]; [7]", "result": 5.8, "unit": "%"}, {"measurement": "Residual and Distributed Fractions of Active Ingredient: Stages 2–7", "setting": "[1]; [7]", "result": 17.9, "unit": "%"}, {"measurement": "Residual and Distributed Fractions of Active Ingredient: Throat", "setting": "[1]; [7]", "result": 27.2, "unit": "%"}, {"measurement": "Capsule, residual active ingredient", "setting": "[1]; [8]", "result": 3.0, "unit": "%"}, {"measurement": "Inhaler device, residual active ingredient", "setting": "[1]; [8]", "result": 18.2, "unit": "%"}, {"measurement": "Stage 0, distribution of active ingredient", "setting": "[1]; [8]", "result": 28.9, "unit": "%"}, {"measurement": "Stage 1, distribution of active ingredient", "setting": "[1]; [8]", "result": 3.5, "unit": "%"}, {"measurement": "Stages 2–7, lung delivery fraction", "setting": "[1]; [8]", "result": 24.4, "unit": "%"}, {"measurement": "Throat, distribution of active ingredient", "setting": "[1]; [8]", "result": 22.0, "unit": "%"}, {"measurement": "Capsule, residual active ingredient", "setting": "[1]; [9]", "result": 2.6, "unit": "%"}, {"measurement": "Inhaler device, residual active ingredient", "setting": "[1]; [9]", "result": 14.6, "unit": "%"}, {"measurement": "Stage 0, distribution of active ingredient", "setting": "[1]; [9]", "result": 21.8, "unit": "%"}, {"measurement": "Stage 1, distribution of active ingredient", "setting": "[1]; [9]", "result": 3.8, "unit": "%"}, {"measurement": "Stages 2–7, lung delivery fraction", "setting": "[1]; [9]", "result": 40.4, "unit": "%"}, {"measurement": "Throat, distribution of active ingredient", "setting": "[1]; [9]", "result": 16.9, "unit": "%"}, {"measurement": "Capsule, residual active ingredient", "setting": "[1]; [10]", "result": 2.5, "unit": "%"}, {"measurement": "Inhaler device, residual active ingredient", "setting": "[1]; [10]", "result": 2.9, "unit": "%"}, {"measurement": "Stage 0, distribution of active ingredient", "setting": "[1]; [10]", "result": 66.4, "unit": "%"}, {"measurement": "Stage 1, distribution of active ingredient", "setting": "[1]; [10]", "result": 15.2, "unit": "%"}, {"measurement": "Stages 2–7, lung delivery fraction", "setting": "[1]; [10]", "result": 11.3, "unit": "%"}, {"measurement": "Throat, distribution of active ingredient", "setting": "[1]; [10]", "result": 1.7, "unit": "%"}, {"measurement": "Dispersibility of drugs (active ingredient) (%)", "setting": "[2]; Spray Pressure 0.2 kg/cm^2", "result": 8.3, "unit": "%"}, {"measurement": "Dispersibility of drugs (active ingredient) (%)", "setting": "[2]; Spray Pressure 0.3 kg/cm^2", "result": 9.4, "unit": "%"}]}]}
